Source: patent US20030232101A1, “Topical formulations of resorcinols and cannibinoids and methods of use” (Immugen Pharmaceuticals, Inc., priority 2002, published 2003)
“Also recorded” adds a separate entry of the source. Like-named read-outs stand apart in the source and are kept apart here.

Key:
Assay type in all cases: cell-based
HIV-1 (96USHIPS7 strain) = assay: HIV attachment assay in PBMCs (cell-associated p24); conditions: for Comments: effect on HIV attachment / % Control / pg p24: 15 μM; for Comments: effect on HIV attachment: pretreatment 0, 2, 4, 24 h; for virus binding relative to control: pretreated for 24 h
Experimental: ELISA kits were purchased from Coulter Electronics. The assay was performed according to the manufacturer's instructions. Control curves were generated in each assay to accurately quantitate the amount of p24 antigen in each sample. For experiments using cell lysates. Fifty thousand (5×10^4) viable cells were lysed in Coulter ELISA buffer and subjected to 1 round of freeze/thawed to liberate trapped p24 and p24 detected per manufacturers instructions. HIV capsid protein (p24) was quantitated spectrophotometrically at 450 nm using a Molecular Devices Vmax plate reader using a standard curve. Final concentrations were calculated from the optical density values using the Molecular Devices Soft Max software package.
The attachment assay with PBMCs was performed as follows. Briefly, 1×10^6 PHA/IL-2 PBMCs were incubated for 0, 2, 4 and 24 hours with IMG compounds and cannabidiol in polypropylene tubes. A pre-titered amount of HIV-1 (96USHIPS7 strain, obtained from the AIDS Research and Reference Reagent Program ) was added in the presence of compound and incubated for 3 h at 37° C. After incubation the cultures were washed 3 times (400×g, 10 min, 4° C.) with media (1:25,000 dilution of input p24), the cell pellets lysed with p24 lysing buffer (Coulter) and p24 content determined by ELISA.
PBMCs pretreated with compounds for 0, 2, 4, and 24 were incubated with cell-free HIV-1 for 3 h and the excess unbound HIV removed. The assessed the amount of HIV bound to the cell was then assessed by measuring cell-associated p24 content of total cell lysates.

[1] = Compound toxicity in the attachment assay, sister plates, MTS dye reduction; conditions: human, HeLa CD4 LTR β-gal cells, read-out: TC50
Experimental: At assay termination the assay plates were stained with the soluble tetrazolium-based dye MTS (CellTiter96® Reagent Promega) to determine cell viability and quantify compound toxicity. MTS is metabolized by the mitochondria enzymes of metabolically active cells to a soluble formazan product, allowing the rapid quantitative analysis cell viability and compound cytotoxicity. […] At termination of the assay 20 μL of MTS reagent was added per well and incubated for 4 h at 37° C. Adhesive plate sealers were used in place of the lids, the sealed plate was inverted several times to mix the soluble formazan product and the plate was read spectrophotometrically at 490 nm with a Molecular Devices Vmax plate reader.
The attachment assay was performed with the HeLa CD4 LTR β-gal cells available from the AIDS Research and Reference Reagent Repository. […] HeLa CD4 LTR β-gal cells express cell surface CD4 and contain an LTR β-galactosidase reporter construct. Upon infection either the Tat protein incorporated into the virion or new Tat produced following virus integration and transcription trans-activates the LTR β-gal reporter, leading to expression of the β-galactosidase enzyme. HeLa CD4 LTR β-gal cells are routinely cultured with the required selection antibiotics and screened for mycoplasma contamination. Twenty-four h prior to initiation of the assay cells were trypsinized, counted and 1×10^4 cells placed in a 0.2 cm well in media without selection antibiotics. […] A known titer of virus was then added to the wells and the incubation continued for 1 h. At the end of the incubation the wells were washed 6 times with media and the culture continued for 48 h. At 48 h the wells were washed one time with PBS and β-galactosidase enzyme expression determined by chemiluminescence per manufacturers instructions (Tropix Gal-screen™, Tropix, Bedford, Mass.). Compound toxicity was monitored on sister plates using MTS dye reduction.

HIV-1 = assay: HeLa CD4 LTR β-gal HIV-1 attachment assay (Experimental Example 1); conditions: for IC50: Human immunodeficiency virus 1, HeLa; for inhibition of HIV attachment/entry: following a 24 h pre-incubation

| SMILES | % Control (HIV-1 (96USHIPS7 strain); time 0 h) [%] | pg p24 (HIV-1 (96USHIPS7 strain); time 0 h) [pg] | % Control (HIV-1 (96USHIPS7 strain); time 2 h) [%] | pg p24 (HIV-1 (96USHIPS7 strain); time 2 h) [pg] | % Control (HIV-1 (96USHIPS7 strain); time 4 h) [%] | pg p24 (HIV-1 (96USHIPS7 strain); time 4 h) [pg] | % Control (HIV-1 (96USHIPS7 strain); time 24 h) [%] | pg p24 (HIV-1 (96USHIPS7 strain); time 24 h) [pg] | CC50 at 48 h ([1]; Experiment 1, pretreat 0 h) [µM] | CC50 at 48 h ([1]; Experiment 1, pretreat 4 h) [µM] | CC50 at 48 h ([1]; Experiment 1, pretreat 24 h) [µM] | CC50 at 48 h ([1]; Experiment 2, pretreat 0 h) [µM] | CC50 at 48 h ([1]; Experiment 2, pretreat 4 h) [µM] | CC50 at 48 h ([1]; Experiment 2, pretreat 24 h) [µM] | IC50 (HIV-1; Experiment 1, pretreat 0 h) [µM] | IC50 (HIV-1; Experiment 1, pretreat 4 h) [µM] | IC50 (HIV-1; Experiment 1, pretreat 24 h) [µM] | IC50 (HIV-1; Experiment 2, pretreat 0 h) [µM] | IC50 (HIV-1; Experiment 2, pretreat 4 h) [µM] | IC50 (HIV-1; Experiment 2, pretreat 24 h) [µM] | other results |
| --- | --- | --- | --- | --- | --- | --- | --- | --- | --- | --- | --- | --- | --- | --- | --- | --- | --- | --- | --- | --- | --- |
| C=C(C)[C@@H]1CCC(C)=C[C@H]1c1c(O)cc(CCCCC)cc1O [Cannabidiol, reference compound] | 82.6 | 317 | 74.5 | 286 | 90.9 | 349 | 114.3 | 439 | > 50 | > 50 | > 50 | > 50 | 41 | 33 | 14.1 | 6.8 | 1.2 | 1.3 | 28 | 1.4 | Comments: effect on HIV attachment (HIV-1 (96USHIPS7 strain)): No significant effect; virus binding relative to control (HIV-1 (96USHIPS7 strain)): return to control levels of virus binding; β-galactosidase production relative to background (cells alone+compounds) (HIV-1; at all times): suppressed β-galactosidase production below background; inhibition of HIV attachment/entry (HIV-1): consistent inhibition; Comment: suppression of β-galactosidase activity (HIV-1; pretreat 0 h): Exp. 1 suppression of β-galactosidase; Comment: suppression of β-galactosidase activity (HIV-1; pretreat 4 h): Suppression of β-galactosidase activity; Comment: suppression of β-galactosidase activity (HIV-1; pretreat 24 h): Suppression of β-galactosidase activity |
| COc1cc(C(C)(C)CCCC(C)C)cc(OC)c1OC [IMG507, 1-(1,1,5-Trimethylhexyl)-3,4,5-trimethoxybenzene] | 83.3 | 320 | 91.4 | 351 | 76.3 | 293 | 95.8 | 368 | > 50 | > 50 | > 50 | > 50 | > 50 | > 50 | > 50 | > 50 | > 50 | 16 | > 50 | > 50 | Comments: effect on HIV attachment (HIV-1 (96USHIPS7 strain)): no significant effect on virus attachment; β-galactosidase production relative to background (cells alone+compounds) (HIV-1; at all times): suppressed β-galactosidase production below background; inhibition of HIV attachment/entry (HIV-1): not; transient suppression of virus replication at lower concentrations of compounds (HIV-1; observed consistently, two independent experiments): transient suppression of virus replication; Comment: transient suppression lost at lower concentrations (HIV-1; pretreat 0 h): Transient suppression lost with at lower; Comment: transient suppression lost at lower concentrations (HIV-1; pretreat 4 h): Transient suppression lost with at lower; Comment: transient suppression lost at lower concentrations (HIV-1; pretreat 24 h): Transient suppression t lost with at lower |
| CC(C)=CCCC1(C)CCc2c(O)cc(C(C)(C)CCCC(C)C)cc2O1 (stereo not drawn) [IMG508, 3,4-Dihydro-2-methyl-2-(4-methyl-3-pentenyl)-7-(1,1,5-trimethylhexyl)-2H-1-benzopyran-5-ol] | 81.3 | 312 | 85.4 | 328 | 72.7 | 279 | 111.5 | 428 | > 50 | > 50 | > 50 | > 50 | 29 | 12.2 | 16 | 10.8 | 7.4 | 0.9 | 11 | 2.6 | Comments: effect on HIV attachment (HIV-1 (96USHIPS7 strain)): No significant effect; virus binding relative to control (HIV-1 (96USHIPS7 strain)): return to control levels of virus binding; β-galactosidase production relative to background (cells alone+compounds) (HIV-1; at all times): suppressed β-galactosidase production below background; inhibition of HIV attachment/entry (HIV-1): consistent inhibition; Comment: suppression of β-galactosidase activity (HIV-1; pretreat 0 h): Suppression of β-galactosidase activity,; Comment: transient suppression lost at lower concentrations (HIV-1; pretreat 0 h): Transient suppression lost with at lower; Comment: suppression of β-galactosidase activity (HIV-1; pretreat 4 h): Suppression of β-galactosidase activity; Comment: suppression of β-galactosidase activity (HIV-1; pretreat 24 h): Suppression of β-galactosidase activity,; Comment: transient suppression lost at lower concentrations (HIV-1; pretreat 24 h): Transient suppression lost with at lower |
| CC1=CCC2C(C1)c1c(O)cc(C(C)(C)CCCC(C)C)cc1OC2(C)C (stereo not drawn) [IMG509, 3-Norpentyl-3-(1,1,5-trimethylhexyl)-Δ8-tetrahydrocannabinol] | 83.6 | 321 | 81.8 | 314 | 61.2 | 235 | 77.3 | 297 | > 50 | > 50 | > 50 | > 50 | 37 | 14.9 | > 50 | 21 | 11.5 | 28 | 36 | 3.5 | inhibition of HIV cell-association (HIV-1 (96USHIPS7 strain); 4 h preincubation): significantly inhibit HIV cell-association; β-galactosidase production relative to background (cells alone+compounds) (HIV-1; following 24 h exposure): suppressed β-galactosidase production below background; inhibition of HIV attachment/entry (HIV-1): not; Comment: transient suppression lost at lower concentrations (HIV-1; pretreat 0 h): transient suppression of virus replication; also recorded: Transient suppression lost with at lower; Comment: suppression of β-galactosidase activity (HIV-1; pretreat 24 h): Suppression of β-galactosidase activity |
